Test results as given in paper PMC13626384 (Journal of medicinal chemistry, 2025).
Read-outs that look alike come from different tables or passages of the source.

Assays:
H460 cell line = assay: Cytotoxicity against H460 cells; type: cell-based; details: read-out: H460 IC50; non-small cell lung cancer cell line
[1] = target: human immunoproteasome (i20S) β2 (Homo sapiens, UniProt P40306+P49720); assay: Proteasome subunit inhibition, i20S β2; type: biochemical; details: read-out: i20S β2 IC50 ± SD; read 60 to 90 minutes after start
[2] = target: human immunoproteasome (i20S) β1 (Homo sapiens, UniProt P28065+P40306); assay: Proteasome subunit inhibition, i20S β1; type: biochemical; details: read-out: i20S β1 IC50 ± SD; read 60 to 90 minutes after start
Plasma stability = type: in vitro ADME; details: mouse plasma, after 5 hr
[3] = PAMPA-BBB permeability assay; details: PAMPA-BBB
SF188 cell line = assay: Cytotoxicity against SF188 cells; type: cell-based, human
[4] = target: human immunoproteasome (i20S) β5 (Homo sapiens, UniProt P20618+P28062); assay: Proteasome subunit inhibition, i20S β5; type: biochemical; details: read-out: i20S β5 IC50 ± SD; read 60 to 90 minutes after start
D283-med cell line = assay: Cytotoxicity against D283-med cells; type: cell-based, human
[5] = Caco-2 cell permeability and efflux; type: in vitro ADME, human; details: human, Caco-2
[6] = read-out: SF188 IC50, glioblastoma cell line
[7] = read-out: D283-med IC50, medulloblastoma cell line

| % Recovery [3] | Mean Permeability [3] | Compound | IC50 (H460 cell line) | IC50 (SF188 cell line; [6]) | IC50 (D283-med cell line; [7]) | other results |
| --- | --- | --- | --- | --- | --- | --- |
| 53% | 3.75 10^−6 cm/sec | CC(C)C[C@H](NC(=O)[C@@H]1Cc2c(F)c(F)c(c(F)c2F)Sc2cccc(c2)CC(=O)N[C@@H]([C@@H](C)O)C(=O)N1)C(=O)[C@@]1(C)CO1 [Compound 14, (5S,8S)-3^2,3^3,3^5,3^6-Tetrafluoro-8-((R)-1-hydroxyethyl)-N-((S)-4-methyl-1-((R)-2-methyloxiran-2-yl)-1-oxopentan-2-yl)-7,10-dioxo-2-thia-6,9-diaza-1(1,3),3(1,4)-dibenzenacycloundecaphane-5-carboxamide] | 186 ± 52 nM | 40 ± 9 nM | 20 ± 1 nM | IC50 [1]: 1060 ± 171 nM; IC50 [2]: 310 ± 39.5 nM; Plasma Stability % remaining (Plasma stability): more than 75%; Pe (effective permeability) [3]: around 4 10^−6 cm s^−1; IC50 [4]: 858 ± 342 nM |
| 79% | 2.06 10^−6 cm/sec | CC(C)C[C@H](NC(=O)[C@@H]1Cc2c(F)c(F)c(c(F)c2F)S(=O)(=O)c2cccc(c2)CC(=O)N[C@@H](C(C)(C)O)C(=O)N1)C(=O)[C@@]1(C)CO1 [Compound 24, (5S,8S)-3^2,3^3,3^5,3^6-Tetrafluoro-8-(2-hydroxypropan-2-yl)-N-((S)-4-methyl-1-((R)-2-methyloxiran-2-yl)-1-oxopentan-2-yl)-7,10-dioxo-2-thia-6,9-diaza-1(1,3),3(1,4)-dibenzenacycloundecaphane-5-carboxamide 2,2-dioxide] | 410 ± 59 nM | 100 ± 7 nM | 54 ± 2 nM |  |
| 88% | 1.40 10^−6 cm/sec | CC(C)C[C@H](NC(=O)[C@@H]1Cc2c(F)c(F)c(c(F)c2F)S(=O)(=O)c2cccc(c2)CC(=O)N[C@@H]([C@H](C)O)C(=O)N1)C(=O)[C@@]1(C)CO1 [Compound 27, (5S,8S)-3^2,3^3,3^5,3^6-Tetrafluoro-8-((S)-1-hydroxyethyl)-N-((S)-4-methyl-1-((R)-2-methyloxiran-2-yl)-1-oxopentan-2-yl)-7,10-dioxo-2-thia-6,9-diaza-1(1,3),3(1,4)-dibenzenacycloundecaphane-5-carboxamide 2,2-dioxide] | 360 ± 56 nM | 72 ± 10 nM | 28 ± 10 nM |  |
|  |  | CC(C)C[C@H](NC(=O)[C@@H]1Cc2c(F)c(F)c(c(F)c2F)S(=O)(=O)c2ccc(cc2)CCC(=O)N[C@@H](C(C)C)C(=O)N1)C(=O)[C@@]1(C)CO1 [Compound 29, (5S,8S)-3^2,3^3,3^5,3^6-Tetrafluoro-8-isopropyl-N-((S)-4-methyl-1-((R)-2-methyloxiran-2-yl)-1-oxopentan-2-yl)-7,10-dioxo-2-thia-6,9-diaza-1,3(1,4)-dibenzenacyclododecaphane-5-carboxamide 2,2-dioxide] | 470 ± 154 nM | 150 ± 12 nM | 146 ± 29 nM |  |
|  |  | CC(C)C[C@H](NC(=O)[C@@H]1Cc2c(F)c(F)c(c(F)c2F)S(=O)(=O)c2cccc(c2)CC(=O)NCC(=O)N1)C(=O)[C@@]1(C)CO1 [Compound 32, (S)-32,33,35,36-Tetrafluoro-N-((S)-4-methyl-1-((R)-2-methyloxiran-2-yl)-1-oxopentan-2-yl)-7,10-dioxo-2-thia-6,9-diaza-1(1,3),3(1,4)-dibenzenacycloundecaphane-5-carboxamide 2,2-dioxide] | 4540 nM | 7230 nM | 563 ± 46 nM |  |
| 87% | 1.49 10^−6 cm/sec | CC(C)C[C@H](NC(=O)[C@@H]1Cc2ccc(cc2)OCCCCCC(=O)N[C@@H](C(C)C)C(=O)N1)C(=O)[C@@]1(C)CO1 [Compound 33, (10S,13S)-10-Isopropyl-N-((S)-4-methyl-1-((R)-2-methyloxiran-2-yl)-1-oxopentan-2-yl)-8,11-dioxo-2-oxa-9,12-diaza-1(1,4)-benzenacyclotetradecaphane-13-carboxamide] | 53 ± 15 nM | 12.2 ± 0.4 nM | 10.1 ± 2.1 nM | IC50 [1]: 67.4 ± 8.4 nM; IC50 [2]: 81.7 ± 8.6 nM; IC50 [4]: 32.9 ± 5.9 nM |
|  |  | CC(C)C[C@H](NC(=O)[C@@H]1Cc2ccc(cc2)SCCCCCC(=O)NC(C)(C)C(=O)N1)C(=O)[C@@]1(C)CO1 [Compound 36, (S)-10,10-Dimethyl-N-((S)-4-methyl-1-((R)-2-methyloxiran-2-yl)-1-oxopentan-2-yl)-8,11-dioxo-2-thia-9,12-diaza-1(1,4)-benzenacyclotetradecaphane-13-carboxamide] | 2330 nM | 2260 nM | 1440 nM |  |
|  |  | CC(C)C[C@@H](NC(=O)[C@@H]1Cc2ccc(cc2)S(=O)(=O)CCCCCC(=O)NC(C)(C)C(=O)N1)C(=O)[C@@]1(C)CO1 [Compound 37, (S)-10,10-Dimethyl-N-((R)-4-methyl-1-((R)-2-methyloxiran-2-yl)-1-oxopentan-2-yl)-8,11-dioxo-2-thia-9,12-diaza-1(1,4)-benzenacyclotetradecaphane-13-carboxamide 2,2-dioxide] | 1720 nM | 4420 nM | 590 ± 20 nM |  |
| 99% | 0.27 10^−6 cm/sec | CC(C)C[C@H](NC(=O)[C@@H]1Cc2ccc(cc2)S(=O)(=O)CCCCCC(=O)NC(C(C)C)C(=O)N1)C(=O)[C@@]1(C)CO1 (stereo partly drawn) [Compound 38, (13S)-10-Isopropyl-N-((S)-4-methyl-1-((R)-2-methyloxiran-2-yl)-1-oxopentan-2-yl)-8,11-dioxo-2-thia-9,12-diaza-1(1,4)-benzenacyclotetradecaphane-13-carboxamide 2,2-dioxide] | 287 ± 42 nM | 157 ± 45 nM | 16 ± 2 nM |  |
|  |  | C[C@H]1O[C@@H](O[C@H]2[C@@H](O)C[C@H](O[C@H]3[C@@H](O)C[C@H](O[C@H]4CC[C@@]5(C)[C@H](CC[C@@H]6[C@@H]5C[C@@H](O)[C@]5(C)[C@@H](C7=CC(=O)OC7)CC[C@]65O)C4)O[C@@H]3C)O[C@@H]2C)C[C@H](O)[C@@H]1O [Digoxin, reference compound] |  |  |  | Papp A→B [5]: 1.3 ×10⁻⁶ cm/s; Papp B→A [5]: 13 ×10⁻⁶ cm/s |
|  |  | Cn1cc(CNCC2CCN(c3ncc(C(=O)NO)cn3)CC2)c2ccccc21 [Quisinostat, reference compound] | 30 ± 3 nM | 43 ± 2 nM | 37 ± 2 nM | IC50 (SF188 cell line; Homo sapiens, SF-188, read-out: SF188 IC50, glioblastoma cell line): 30 to 43 nM; IC50 (D283-med cell line; Homo sapiens, D283 Med, read-out: D283-med IC50, medulloblastoma cell line): 30 to 43 nM |
|  |  | (5S,8S)-3^2,3^3,3^5,3^6-Tetrafluoro-8-isopropyl-9-methyl-N-((S)-4-methyl-1-((R)-2-methyloxiran-2-yl)-1-oxopentan-2-yl)-7,10-dioxo-2-thia-6,9-diaza-1(1,3),3(1,4)-dibenzenacycloundecaphane-5-carboxamide 2,2-dioxide [Compound 30] | 3200 nM | 1680 nM | 1470 nM |  |
|  |  | (5S,8S)-32,33,35,36-Tetrafluoro-8-isopropyl-N-((S)-4-methyl-1-((R)-2-methyloxiran-2-yl)-1-oxopentan-2-yl)-7,10-dioxo-2-thia-6,9-diaza-1,3(1,4)-dibenzenacyclododecaphane-5-carboxamide [Compound 18] | 1080 nM | 239 ± 10 nM | 232 ± 12 nM |  |
|  |  | (S)-10,10-Dimethyl-N-((S)-4-methyl-1-((R)-2-methyloxiran-2-yl)-1-oxopentan-2-yl)-8,11-dioxo-2-oxa-9,12-diaza-1(1,4)-benzenacyclotetradecaphane-13-carboxamide [Compound 34] | 4520 nM | 2910 nM | 2080 nM |  |
